# In PMC5601625, “Defining a therapeutic window for kinase inhibitors in leukemia to avoid neutropenia” (Oncotarget, 2017):
# pIC50: −log10 of the molar value. Where two headings read alike, the source gives them in different places.
# Columns and labels:
# Assay in all cases: Cell Titer Glo cell viability assay, 48 h
# Assay type in all cases: cell-based, human
# Details in all cases: read-out: IC50 of inhibitors on cell lines, m (mean)
# HEL.92.1.7 = system: HEL.92.1.7
# Method: (§1) The activity of the kinase inhibitor collection against a panel of human leukemia cell lines was determined in cell viability assays run over 48 h using the Cell Titer Glo reagent.
# (§2) Figure 1 Effects of kinase inhibition on the proliferation of leukemia cells A. Human leukemia cell lines were treated with duplicate serial dilutions of kinase inhibitors and the effect on cell viability was determined by Cell Titer Glo assay after 48 hours. […] HL-60 cells were treated with serial dilutions of mTor/PI3K B. and MEK C. inhibitors and the effect on cell viability was determined after 48 hours. Data shown is the mean ± SEM of 3 independent experiments.
# (§3) Leukemia and lymphoma cell lines were grown in RPMI containing 10% FCS. […] Cell lines are routinely tested for mycoplasma and genotyped by short tandem repeating (STR) profiling to confirm identity.
# (§4) Compounds were obtained from SynMedChem and dissolved at […] in DMSO. Serial 2-fold dilutions of each compound were prepared in DMSO using a liquid handling robot (Janus, Perkin Elmer). Each dilution (100nL) was transferred to duplicate tissue culture plates containing 50 μL of media containing 5 × 10^3 cells using a 384 well pin tool. Cells were incubated for 48 h and cell viability was determined using Cell Titer Glow reagents as described by the manufacturer (Promega). Data was acquired using a luminescent plate reader (Envision, Perkin Elmer) and analysed using Activity Base (IDBS, Guilford, UK) and visualised using Spotfire (TIBCO, Palo Alto, CA) as described previously. Each cell line was assayed in independent experiments on at least two occasions. […] Serial 2-fold dilutions of each compound were prepared in media containing 0.2% DMSO and 50 μl of each dilution was added to 10^4 cells in 50 μl of media. Cells were incubated for 48 h and cell viability was determined using Cell Titer Glow assay as described above.
# HL-60 = system: HL-60
# Method: as §1, §2, §3, §4
# OCI-AML3 = system: OCI-AML3
# Method: as §1, §2, §3, §4
# EOL-1 = system: EOL-1
# Method: as §1, §2, §3, §4
# MEG-01 = system: MEG-01
# Method: as §1, §2, §3, §4
# JURKAT = system: JURKAT
# Method: as §1, §2, §3, §4
# K562 = system: K562
# Method: as §1, §2, §3, §4
# U937 = system: U937
# Method: as §1, §2, §3, §4
# MOLT4 = system: MOLT4
# Method: as §1, §2, §3, §4
# THP-1 = system: THP-1
# Method: as §1, §2, §3, §4
# MV4;11 = system: MV4;11
# Method: as §1, §2, §3, §4
# KU-812 = system: KU-812
# Method: as §1, §2, §3, §4
# [1] = 48 h, mean of 2 independent experiments, 0 = less than 10 nM, cell line not given
# [2] = Homo sapiens, 48 h, mean of 2 independent experiments, 0 = less than 10 nM, cell line not given
# [3] = Homo sapiens, OCI-AML-3, 48 h, mean of 2 independent experiments, 0 = less than 10 nM, cell line not given
# [4] = Homo sapiens, EOL1, 48 h, mean of 2 independent experiments, 0 = less than 10 nM, cell line not given
# [5] = Homo sapiens, U-937, 48 h, mean of 2 independent experiments, 0 = less than 10 nM, cell line not given
# [6] = Homo sapiens, MOLT-4, 48 h, mean of 2 independent experiments, 0 = less than 10 nM, cell line not given
# [7] = Homo sapiens, KU812, 48 h, mean of 2 independent experiments, 0 = less than 10 nM, cell line not given
Structure (SMILES),pIC50 (HL-60; [1]),pIC50 (OCI-AML3; [1]),pIC50 (JURKAT; [1]),pIC50 (K562; [1]),pIC50 (U937; [1]),pIC50 (HL-60; [2]),pIC50 (OCI-AML3; [3]),pIC50 (JURKAT; [2]),pIC50 (K562; [2]),pIC50 (U937; [5]),pIC50 (MOLT4; [6]),pIC50 (THP-1; [2]),pIC50 (MV4;11; [2]),pIC50 (HEL.92.1.7; [1]),pIC50 (EOL-1; [1]),pIC50 (MEG-01; [1]),pIC50 (HEL.92.1.7; [2]),pIC50 (EOL-1; [4]),pIC50 (MEG-01; [2]),pIC50 (KU-812; [7]),other results
CC(=O)Nc1nc(C)c(-c2ccc(Cl)c(S(=O)(=O)NCCO)c2)s1 [PIK-93],,,,,,,,,,,,,,,,,,,,,pIC50 (HEL.92.1.7): 5.09; pIC50 (HL-60): 5.68; pIC50 (OCI-AML3): 5.74; pIC50 (EOL-1): 6.41; pIC50 (MEG-01): < 5.00; pIC50 (JURKAT): 5.47; pIC50 (K562): 5.00; pIC50 (U937): 5.89; pIC50 (MOLT4): 5.53; pIC50 (THP-1): 5.15; pIC50 (MV4;11): 5.91; pIC50 (KU-812): < 5.00
COc1cc2c(N3CCN(C(=O)Nc4ccc(OC(C)C)cc4)CC3)ncnc2cc1OCCCN1CCCCC1 [Tandutinib],,,,,,5.12,5.31,5.36,5.05,5.13,5.01,5.13,7.10,,,,< 5.00,7.70,5.10,5.18,
COc1ccc2c(c1OC)N=C(NC(=O)c1cccnc1)N1CCN=C21 [PIK-90],5.65,6.09,5.02,< 5.00,5.63,,,,,,,,,< 5.00,5.29,< 5.00,,,,,pIC50 (MOLT4; [1]): 5.41; pIC50 (THP-1; [1]): 5.27; pIC50 (MV4;11; [1]): 5.19; pIC50 (KU-812; [1]): < 5.00
CCCS(=O)(=O)Nc1ccc(F)c(C(=O)c2c[nH]c3ncc(Cl)cc23)c1F [PLX4720],,,,,,< 5.00,< 5.00,5.01,< 5.00,5.07,< 5.00,< 5.00,5.25,,,,< 5.00,5.38,6.08,6.35,
CCN(CC)CCNC(=O)c1c(C)[nH]c(/C=C2\C(=O)Nc3ccc(F)cc32)c1C [Sunitinib],,,,,,5.84,5.99,5.79,5.32,5.94,5.60,5.74,8.00,,,,5.58,8.00,5.62,5.81,
CN(c1ccccc1CNc1nc(Nc2ccc3c(c2)CC(=O)N3)ncc1C(F)(F)F)S(C)(=O)=O [PF431396],5.79,5.53,5.44,5.15,5.91,,,,,,,,,5.39,5.82,5.20,,,,,pIC50 (MOLT4; [1]): 5.19; pIC50 (THP-1; [1]): 5.44; pIC50 (MV4;11; [1]): 6.80; pIC50 (KU-812; [1]): 5.28
O=C(Nc1cccc(Cl)c1)Nc1ncc(CCNc2ncnc3ccsc23)s1 [SNS-314],,,,,,5.18,< 5.00,5.05,5.04,5.30,5.45,5.13,8.00,,,,< 5.00,7.70,5.09,6.08,
CC(=O)Nc1ccc([C@H](C)C(=O)Nc2ncc(C(C)C)s2)cc1 [PHA690509],5.63,5.21,5.49,5.22,5.98,,,,,,,,,5.54,5.27,5.27,,,,,pIC50 (MOLT4; [1]): 5.33; pIC50 (THP-1; [1]): 5.22; pIC50 (MV4;11; [1]): 5.23; pIC50 (KU-812; [1]): 5.41

# Now from value to compound, other results behind:
pIC50 (HL-60; [1]),pIC50 (OCI-AML3; [1]),pIC50 (JURKAT; [1]),pIC50 (K562; [1]),pIC50 (U937; [1]),pIC50 (HL-60; [2]),pIC50 (OCI-AML3; [3]),pIC50 (JURKAT; [2]),pIC50 (K562; [2]),pIC50 (U937; [5]),pIC50 (MOLT4; [6]),pIC50 (THP-1; [2]),pIC50 (MV4;11; [2]),Structure (SMILES),pIC50 (HEL.92.1.7; [1]),pIC50 (EOL-1; [1]),pIC50 (MEG-01; [1]),pIC50 (HEL.92.1.7; [2]),pIC50 (EOL-1; [4]),pIC50 (MEG-01; [2]),pIC50 (KU-812; [7]),other results
< 5.00,< 5.00,< 5.00,< 5.00,< 5.00,,,,,,,,,Cc1c[nH]c(/C=C2\C(=O)Nc3ccccc32)c1CCC(=O)O [SU-5402],< 5.00,5.84,< 5.00,,,,,pIC50 (MOLT4; [1]): < 5.00; pIC50 (THP-1; [1]): < 5.00; pIC50 (MV4;11; [1]): 6.14; pIC50 (KU-812; [1]): 5.03
,,,,,< 5.00,< 5.00,5.02,5.13,5.39,< 5.00,< 5.00,5.11,CCc1nc(-c2cccc(C)c2)c(-c2ccnc(NC(=O)c3ccccc3)c2)s1 [TAK-715],,,,< 5.00,5.63,5.13,5.21,
,,,,,5.85,5.57,5.42,5.39,5.47,5.23,5.48,5.59,CN(C)CCOc1ccc(-c2nc(-c3ccncc3)c(-c3ccc4c(c3)CC/C4=N\O)[nH]2)cc1 [SB590885],,,,5.28,5.89,5.30,5.30,
,,,,,< 5.00,< 5.00,< 5.00,< 5.00,5.09,< 5.00,< 5.00,5.08,OCCC#Cc1nc(-c2ccc(F)cc2)c(-c2ccncc2)n1CCCc1ccccc1 [RWJ-67657],,,,< 5.00,5.44,< 5.00,5.24,
,,,,,< 5.00,< 5.00,< 5.00,< 5.00,5.18,< 5.00,< 5.00,5.15,Oc1ccc(-c2nc(-c3ccncc3)c(-c3ccc(F)cc3)[nH]2)cc1 [SB202190],,,,< 5.00,5.43,5.17,5.03,
5.32,5.41,5.40,5.02,5.62,,,,,,,,,Nc1ccc(C(=O)Nc2cccc(-c3nc(N4CCOCC4)c4oc5ncccc5c4n3)c2)cn1 [YM201636],5.15,5.23,5.04,,,,,pIC50 (MOLT4; [1]): 5.16; pIC50 (THP-1; [1]): 5.06; pIC50 (MV4;11; [1]): 5.13; pIC50 (KU-812; [1]): 5.37
